Experimental data from US20230372433A1, “NANOPARTICLE FOR ANTI-CANCER PEPTIDES AND USES THEREOF” (KING'S COLLEGE LONDON, priority 2020, published 2023).
Read-outs that look alike come from different tables or passages of the source. [ ]: non-standard residue; d: D form.

Experiments:
[1] = tested on: U2OS (human bone osteosarcoma); assay: MTT cytotoxicity assay, U2OS; type: cell-based; conditions: 72 hr
[2] = tested on: HMLER-shEcad mammospheres; assay: Tumoursphere formation and viability assay; type: cell-based, human
[3] = tested on: HMLER (human breast cancer bulk cell); assay: MTT cytotoxicity assay, HMLER; type: cell-based; conditions: read-out: IC50 HMLER
[4] = tested on: HEK293T (human embryonic kidney cell); assay: MTT cytotoxicity assay, HEK293T; type: cell-based; conditions: read-out: IC50 HEK293T
[5] = tested on: HMLER-shEcad (human breast cancer stem cell); assay: MTT cytotoxicity assay, HMLER-shEcad; type: cell-based
HMLER-shEcad cells = assay: HMLER-shEcad viability with co-incubated necrostatin or z-VAD-FMK; type: cell-based, human
[6] = tested on: MCF-10A (human breast epithelial cell); assay: cells; conditions: read-out: IC50 MCF-10A
[7] = ANTS/DPX liposome leakage assay, POPC vesicles; type: biochemical; conditions: 0.5 mM vesicles
In short: (§1)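 0.5 mM extruded 100 nm LUVs loaded with 5 mM ANTS/12.5 mM DPX were incubated 3 h with peptide at 0–20 μM in PBS pH 7.4 or HCl-adjusted PBS pH 4.8. Fluorescence read at ex 350/em 510 nm; 10% Triton set maximum leakage; values expressed as lipid per peptide.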

[8] = ANTS/DPX liposome leakage assay, 3POPC/1POPG vesicles; type: biochemical; conditions: 0.5 mM vesicles
In short: as §1

[9] = Tryptophan fluorescent binding assay, 3POPC/1POPG vesicles; conditions: 50 μM peptide, PBS pH 7.4
In short: (§2)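 Tryptophan fluorescence was measured with peptide fixed at 50 μM and POPC or 3POPC/1POPG LUVs (100 nm extruded) titrated 0–5000 μM in PBS pH 7.4, read after 60 min. Excitation was 280 nm and emission 300–450 nm. The value is the lipid concentration giving 50% peptide binding, expressed as lipid per peptide.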

[10] = Tryptophan fluorescent binding assay, POPC vesicles; conditions: 50 μM peptide, PBS pH 7.4
In short: as §2

[11] = 72 hr, MTT, read-out: IC50 HMLER-shEcad

| Compound | IC50 [1] | IC50 ([3]; 72 hr, MTT) | IC50 ([4]; 72 hr, MTT) | IC50 [5, 11] | IC50 ([6]; 72 hr, MTT) | Peptide Concentration-induced 50% ANTS/DPX leakage at pH 4.8 (L/P) POPC Vesicle [7] | Peptide Concentration-induced 50% ANTS/DPX leakage at pH 7.4 (L/P) POPC Vesicle [7] | Peptide Concentration-induced 50% ANTS/DPX leakage at pH 4.8 (L/P) 3POPC/1POPG Vesicle [8] | Peptide Concentration-induced 50% ANTS/DPX leakage at pH 7.4 (L/P) 3POPC/1POPG Vesicle [8] | Lipid Concentration-induced 50% Peptide Binding (L/P) 3POPC/1POPG Vesicle [9] | Lipid Concentration-induced 50% Peptide Binding (L/P) POPC Vesicle [10] | other results |
| --- | --- | --- | --- | --- | --- | --- | --- | --- | --- | --- | --- | --- |
| COc1cccc2c1C(=O)c1c(O)c3c(c(O)c1C2=O)C[C@@](O)(C(=O)CO)C[C@@H]3O[C@H]1C[C@H](N)[C@H](O)[C@H](C)O1 [Doxorubicin, reference compound] |  |  |  |  |  |  |  |  |  |  |  | IC50 ([1]; Homo sapiens, U2OS): 15 nM; fold decrease in activity, mammospheres versus two-dimensional HMLER-shEcad [2]: 1,700 fold; IC50 ([3]; Homo sapiens, 72 hr, MTT): 2.5 nM; IC50 ([4]; Homo sapiens, HEK-293T, 72 hr, MTT): 0.11 nM; IC50 ([5]; Homo sapiens, 72 hr, MTT, read-out: IC50 HMLER-shEcad): 3 nM; IC50 ([5]; Homo sapiens, two-dimensional culture, read-out: IC50 against two-dimensional HMLER-shEcad): 2.5 ± 0.3 nM; cell viability on co-incubation with necrostatin or z-VAD-FMK (HMLER-shEcad cells): can be dramatically improved; IC50 ([6]; Homo sapiens, MCF-10A, 72 h): 640 nM |
| CC[C@@H](C(=O)[C@@H](C)[C@@H](O)[C@H](C)[C@@H]1O[C@@H]([C@@H](CC)C(=O)O)CC[C@@H]1C)[C@H]1O[C@]2(C=C[C@@H](O)[C@]3(CC[C@@](C)([C@H]4CC[C@](O)(CC)[C@H](C)O4)O3)O2)[C@H](C)C[C@@H]1C [Salinomycin, reference compound] |  |  |  |  |  |  |  |  |  |  |  | fold decrease in activity, mammospheres versus two-dimensional HMLER-shEcad [2]: 63 fold; IC50 ([2]; Homo sapiens, read-out: IC50 in mammospheres): 22000 ± 5000 nM; IC50 ([3]; Homo sapiens, 72 h): 370 ± 80 nM; IC50 ([4]; Homo sapiens, HEK-293T, 72 h): 410 ± 100 nM; IC50 ([5]; Homo sapiens, 72 h, read-out: IC50 HMLER-shEcad): 920 ± 280 nM; IC50 ([5]; Homo sapiens, read-out: IC50 against two-dimensional HMLER-shEcad): 370 ± 0.5 nM; IC50 ([6]; Homo sapiens, MCF-10A, 72 h): 9760 ± 2280 nM |
| D-form peptide of the selected sequence EEK (GLLELLELLLKAAGW) (H-G[dL][dL][dE][dL][dL][dE][dL][dL][dL][dK][dA][dA]G[dW]-NH2) [D-form EEK] | 4780 ± 20 nM | 290 ± 10 nM | 2820 ± 70 nM | 290 ± 10 nM | 1070 ± 100 nM |  |  |  |  |  |  | cell viability on co-incubation with necrostatin or z-VAD-FMK (HMLER-shEcad cells): cannot be improved |
| GLLHLLKLLLKAAG [HKK] | 12230 ± 110 nM | 3400 ± 710 nM | 9500 ± 990 nM | 2600 ± 420 nM | 2180 ± 390 nM | 106 L/P | 657 L/P | 106 L/P | 90 L/P | 0.14 L/P | 0.18 L/P |  |
| GLLKLLELLLHAAG [KEH] | 49200 ± 5300 nM | 3300 ± 420 nM | 5650 ± 70 nM | 2350 ± 70 nM | 20000 nM | 188 L/P | 995 L/P | 68 L/P | 286 L/P | 0.50 L/P | 1.00 L/P |  |
| GLLKLLELLLKAAG [KEK] | 8150 ± 490 nM | 1600 ± 140 nM | 3200 ± 140 nM | 1350 ± 70 nM | 1550 ± 70 nM | 110 L/P | 1173 L/P | 126 L/P | 438 L/P | 0.50 L/P | 0.47 L/P |  |
| GLLKLLHLLLEAAG [KHE] | 53000 ± 2830 nM | 3700 ± 140 nM | 26000 ± 2830 nM | 2920 ± 170 nM | 20800 ± 5870 nM | 183 L/P | 981 L/P | 156 L/P | 188 L/P | 0.71 L/P | 0.88 L/P |  |
| GLLKLLHLLLHAAG [KHH] | 39800 ± 5300 nM | 5200 ± 710 nM | 7750 ± 780 nM | 4450 ± 490 nM | 10400 ± 490 nM | 227 L/P | 1153 L/P | 48 L/P | 329 L/P | 0.94 L/P | 3.50 L/P |  |
| GLLKLLHLLLKAAG [KHK] | 12900 ± 1240 nM | 2590 ± 920 nM | 3550 ± 780 nM | 1400 ± 140 nM | 1810 ± 50 nM | 140 L/P | 1153 L/P | 53 L/P | 193 L/P | 0.38 L/P | 0.17 L/P |  |
| GLLKLLKLLLEAAG [KKE] | 12800 ± 1200 nM | 2050 ± 640 nM | 4400 ± 140 nM | 1700 nM | 2900 ± 570 nM | 143 L/P | 1133 L/P | 131 L/P | 346 L/P | 0.44 L/P | 0.48 L/P |  |
| GLLKLLKLLLHAAG [KKH] | 13300 ± 990 nM | 2400 ± 850 nM | 4000 ± 280 nM | 2200 ± 420 nM | 1750 ± 350 nM | 164 L/P | 2119 L/P | 49 L/P | 227 L/P | 0.48 L/P | 0.83 L/P |  |
| GLLKLLKLLLKAAG [KKK] | 9650 ± 1200 nM | 1570 ± 240 nM | 3700 ± 140 nM | 1350 ± 400 nM | 1370 ± 240 nM | 156 L/P | 1369 L/P | 81 L/P | 115 L/P | 1.70 L/P | 1.25 L/P |  |
